Assay results reported in ChEMBL document CHEMBL5649166, “RIP3 induces apoptosis independent of pronecrotic kinase activity” (Mol Cell, 2014).

What was measured:
[1] = molecular target: T1, Ephrin type-B receptor 3 (Homo sapiens) (UniProt P54753); experiment: Residual activity of human EPHB3 using poly[Glu:Tyr] (4:1) as substrate at 1 uM in presence of 32P-ATP by Hotspot assay relative to control
T1 sequence (whole entry): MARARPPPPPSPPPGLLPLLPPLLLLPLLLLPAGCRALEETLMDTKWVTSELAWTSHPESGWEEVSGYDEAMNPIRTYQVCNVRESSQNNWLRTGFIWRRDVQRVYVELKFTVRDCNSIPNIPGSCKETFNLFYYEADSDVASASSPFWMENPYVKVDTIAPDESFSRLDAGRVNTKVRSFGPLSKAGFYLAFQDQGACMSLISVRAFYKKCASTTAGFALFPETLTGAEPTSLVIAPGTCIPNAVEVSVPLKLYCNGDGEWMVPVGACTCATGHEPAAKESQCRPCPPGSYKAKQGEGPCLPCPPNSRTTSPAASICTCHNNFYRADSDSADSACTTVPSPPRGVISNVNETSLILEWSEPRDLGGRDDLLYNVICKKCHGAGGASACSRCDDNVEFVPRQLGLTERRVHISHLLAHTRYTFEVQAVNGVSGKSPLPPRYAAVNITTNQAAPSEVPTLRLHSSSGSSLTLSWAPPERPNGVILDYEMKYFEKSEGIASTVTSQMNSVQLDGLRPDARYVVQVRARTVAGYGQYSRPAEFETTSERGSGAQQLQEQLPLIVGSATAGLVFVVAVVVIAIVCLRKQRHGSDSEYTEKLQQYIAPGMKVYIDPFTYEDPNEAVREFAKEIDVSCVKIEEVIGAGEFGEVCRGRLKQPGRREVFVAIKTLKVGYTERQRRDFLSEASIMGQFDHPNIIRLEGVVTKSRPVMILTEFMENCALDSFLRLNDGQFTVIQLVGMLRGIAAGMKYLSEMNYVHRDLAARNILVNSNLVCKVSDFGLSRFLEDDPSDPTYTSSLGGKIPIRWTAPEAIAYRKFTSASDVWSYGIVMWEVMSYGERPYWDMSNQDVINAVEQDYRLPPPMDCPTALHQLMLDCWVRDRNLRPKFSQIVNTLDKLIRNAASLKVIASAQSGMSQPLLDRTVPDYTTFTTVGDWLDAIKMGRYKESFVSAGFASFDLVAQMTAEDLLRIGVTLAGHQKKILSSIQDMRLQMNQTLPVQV

[2] = molecular target: T2, Protein kinase C iota type (Homo sapiens) (UniProt P41743); experiment: Inhibition of human PKCiota using ERMRPRKRQGSVRRRV as substrate at 1 uM in presence of 32P-ATP by Hotspot assay relative to control; values are per cent of control
T2 sequence (whole entry): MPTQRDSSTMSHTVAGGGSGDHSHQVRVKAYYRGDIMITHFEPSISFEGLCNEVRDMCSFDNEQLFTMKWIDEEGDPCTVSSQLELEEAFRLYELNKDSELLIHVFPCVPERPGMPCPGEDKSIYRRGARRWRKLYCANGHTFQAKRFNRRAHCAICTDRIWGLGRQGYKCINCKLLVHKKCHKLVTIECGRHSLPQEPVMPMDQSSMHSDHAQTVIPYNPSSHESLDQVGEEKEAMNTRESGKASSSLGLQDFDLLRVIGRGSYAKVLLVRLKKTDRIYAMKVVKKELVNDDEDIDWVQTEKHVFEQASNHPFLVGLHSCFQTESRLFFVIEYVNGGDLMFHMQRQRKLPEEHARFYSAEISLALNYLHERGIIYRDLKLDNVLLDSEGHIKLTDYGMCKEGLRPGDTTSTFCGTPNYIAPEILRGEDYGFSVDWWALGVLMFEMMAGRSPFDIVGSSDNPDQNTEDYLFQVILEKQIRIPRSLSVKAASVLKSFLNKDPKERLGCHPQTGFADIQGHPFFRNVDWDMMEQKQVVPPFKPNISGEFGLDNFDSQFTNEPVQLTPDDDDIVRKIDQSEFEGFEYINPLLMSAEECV

[3] = molecular target: T3, Calcium/calmodulin-dependent protein kinase type IV (Homo sapiens) (UniProt Q16566); experiment: Residual activity of human CAMK4 using KKLNRTLSFAEPG as substrate at 1 uM in presence of 32P-ATP by Hotspot assay relative to control
T3 sequence (whole entry): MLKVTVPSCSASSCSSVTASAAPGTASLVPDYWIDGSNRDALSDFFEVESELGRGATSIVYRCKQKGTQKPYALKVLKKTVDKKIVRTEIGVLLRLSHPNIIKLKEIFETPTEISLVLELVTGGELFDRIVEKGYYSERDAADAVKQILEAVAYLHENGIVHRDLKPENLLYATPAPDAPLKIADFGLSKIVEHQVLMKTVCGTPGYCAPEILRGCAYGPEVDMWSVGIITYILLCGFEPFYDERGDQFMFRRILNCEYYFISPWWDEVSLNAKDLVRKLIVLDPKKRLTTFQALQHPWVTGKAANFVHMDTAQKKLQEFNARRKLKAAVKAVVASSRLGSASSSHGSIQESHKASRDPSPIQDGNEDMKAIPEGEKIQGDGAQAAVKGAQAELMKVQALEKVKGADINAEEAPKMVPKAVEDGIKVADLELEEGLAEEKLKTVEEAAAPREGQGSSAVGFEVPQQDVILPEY

Structure (SMILES) | residual activity [1] | residual activity [2] | residual activity [3]
CC(C)S(=O)(=O)c1ccc2nccc(Nc3ccc4scnc4c3)c2c1 | 61.2% | 83% | 91%
Cc1cc(-c2cnc(N)c3c(-c4ccc5scnc5c4)csc23)n(C)n1 | 91.4% | 102% | 88.6%
CNC(=O)c1ccc2c(c1)ncn2-c1ccc(CC(=O)OC(C)(C)C)cc1 | 93.6% | 93.8% | 91.8%
